Data set [1] can be described thus: At a dose 50 mg/kg (114 umol/kg) was administered intraperitoneally to mice and was evaluated for MRT. The format is ADME, organism-based. Further details: dose 50 mg/kg, route intraperitoneal. The note with it: mouse, in vivo, ip.
The test system of data set [2] is A2780. The data set can be described thus: […] antitumor activity against A2780 human ovarian carcinoma at 7.5 mg/kg i.p. /qd x7. In kind it is functional. The note with it: route intraperitoneal.
The test system of a further data set is Mus musculus. The data set can be described thus: At a dose 50 mg/kg (114 umol/kg) was administered intraperitoneally to mice and was evaluated for area under curve (AUCtot). The format is ADME, organism-based. Further details: time AUCmax, dose 50 mg/kg, route intraperitoneal. The note with it: in vivo, ip.
Data set [3] is described as follows: At a dose 50 mg/kg (114 umol/kg) was administered intraperitoneally to mice and was evaluated for T max. In kind it is ADME, organism-based. Further details: dose 50 mg/kg, route intraperitoneal. The note with it: mouse, in vivo, ip.
Data set [4] in a line: At a dose 50 mg/kg (114 umol/kg) was administered intraperitoneally to mice and was evaluated for half life (T1/2). The format is ADME, organism-based. Also on record: dose 50 mg/kg, route intraperitoneal. The settings on record: mouse, in vivo, ip.
The nature of data set [5]: At a dose 50 mg/kg (114 umol/kg) was administered intraperitoneally to mice and was evaluated for Cmax. The format is ADME, organism-based. Further details: dose 50 mg/kg, route intraperitoneal. The settings on record: mouse, in vivo, ip.
In data set [6] the target is Cyclin-dependent kinase 2 (Homo sapiens) (UniProt P24941). The experiment in a line: Percentage A2780 cells in G1 after 24 hr r at 5 nM (IC50). The format is functional, cell-based.
Data set [7] has the same target. The experiment in a line: Percentage A2780 cells in G2/M after 24 hr r at 5 nM (IC50). In kind it is functional, cell-based.
Data set [8] shares this target. The data set can be described thus: Percentage A2780 cells in S-phase after 24 hr r at 5 nM (IC50). The format is functional, cell-based.
The target is the same in data set [9]. The data set can be described thus: Percentage A2780 cells in sub-G1 after 24 hr r at 5 nM (IC50). In kind it is functional, cell-based.
For data set [10] the target is unchanged. The experiment in a line: Percentage A2780 cells in G1 after 24 hr r at 29 nM (IC90). In kind it is functional, cell-based.
For data set [11] the target is unchanged. The experiment in a line: Percentage A2780 cells in G2/M after 24 hr r at 29 nM (IC90). The format is functional, cell-based.
Data set [12] has the same target. The data set can be described thus: Percentage A2780 cells in S-phase after 24 hr r at 29 nM (IC90). The format is functional, cell-based.
For data set [13] the target is unchanged. The data set can be described thus: Apoptotic A2780 cells after 24 hr r at 29 nM (IC90). In kind it is functional, cell-based.
Data set [14] shares this target. The data set can be described thus: Apoptotic A2780 cells after 24 hr r at 5 nM (IC50). The format is functional, cell-based.
Data set [15] addresses Cyclin-dependent kinase 1/cyclin B (Homo sapiens, UniProt P06493). The experiment in a line: Inhibitory activity against baculovirus expressed Cyclin dependent kinase 1-cyclinB. In kind it is protein-complex assay.
In data set [16] the target is Cyclin-dependent kinase 2/cyclin E (Homo sapiens, UniProt P24941). The data set can be described thus: Inhibitory activity against baculovirus expressed Cyclin dependent kinase 2-cyclinE. In kind it is protein-complex assay.
Data set [17] deals with Cyclin-dependent kinase 4/cyclin D1 (Homo sapiens, UniProt P11802). The experiment in a line: Inhibitory activity against baculovirus expressed Cyclin dependent kinase 4-cyclinD1. The format is protein-complex assay.
Chain of Cyclin-dependent kinase 4/cyclin D1 (P11802 whole entry): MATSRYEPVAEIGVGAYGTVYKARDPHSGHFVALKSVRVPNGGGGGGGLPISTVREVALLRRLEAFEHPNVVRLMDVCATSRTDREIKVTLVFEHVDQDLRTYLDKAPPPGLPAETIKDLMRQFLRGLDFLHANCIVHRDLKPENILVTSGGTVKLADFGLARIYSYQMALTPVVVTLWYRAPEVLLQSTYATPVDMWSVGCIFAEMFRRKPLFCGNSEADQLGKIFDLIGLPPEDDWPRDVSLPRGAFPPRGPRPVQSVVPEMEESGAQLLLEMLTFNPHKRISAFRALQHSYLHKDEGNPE
Chain of Cyclin-dependent kinase 4/cyclin D1 (P24385 whole entry, further chain): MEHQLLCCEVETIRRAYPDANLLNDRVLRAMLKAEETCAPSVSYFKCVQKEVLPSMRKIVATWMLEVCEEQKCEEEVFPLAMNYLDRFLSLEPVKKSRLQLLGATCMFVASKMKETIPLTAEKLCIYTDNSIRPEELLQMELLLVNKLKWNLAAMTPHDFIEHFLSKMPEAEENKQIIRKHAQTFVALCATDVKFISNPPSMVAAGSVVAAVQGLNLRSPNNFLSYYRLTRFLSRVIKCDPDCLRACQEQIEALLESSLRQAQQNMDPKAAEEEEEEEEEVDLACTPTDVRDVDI
The subject of the next data set is HS27. The experiment in a line: Inhibition of Hs 27 human fibroblast cell proliferation. In kind it is functional, cell-based.
The next data set is filed under the species Homo sapiens. The experiment in a line: Percent of serum binding in human. The format is functional.
For another data set, the system named is MLF. The experiment in a line: Inhibition of MLF mouse lung fibroblast cell proliferation. In kind it is functional, cell-based.
Another data set relates to P388. The data set can be described thus: […] antitumor activity against P388 murine leukemia at 7.5 mg/kg i.p. /qd x7 and %T/C. In kind it is functional, Mus musculus. The note with it: route intraperitoneal.
The subject of another data set is M109. The experiment in a line: Inhibition of M109 mouse lung carcinoma cell proliferation. In kind it is functional, cell-based.
Data set [18] has as its system A2780. The experiment in a line: cells. The settings on record: Homo sapiens.
Description: Cytotoxic activity against A2780 human ovarian carcinoma cell line
The target of data set [19] is Cyclin-dependent kinase 2 (Homo sapiens) (UniProt P24941). The experiment in a line: Percentage A2780 cells in sub-G1 after 24 hr r at 29 nM (IC90).
In another data set the target is Protein kinase C (PKC). The experiment in a line: Inhibition of Protein kinase C. In kind it is protein assay.
Data set [20] concerns the target cAMP-dependent protein kinase (PKA) (Homo sapiens, UniProt P22694+P17612+P22612). The data set can be described thus: Inhibition of Protein kinase A (PKA). In kind it is protein assay.

The source of these data is ChEMBL document CHEMBL1135763, “Discovery of aminothiazole inhibitors of cyclin-dependent kinase 2: synthesis, X-ray crystallographic analysis, and biological activities” (J Med Chem, 2002).

pIC50: −log10 of the molar value.

For orientation: MRT means the average time that molecules of a dose stay in the body. What is called AUC is the area under the concentration-time curve, a measure of exposure. In general, Tmax refers to the time at which the peak concentration occurs. As usually defined, the half-life is the time in which the quantity being followed falls by half. In general, Cmax refers to the maximum level reached in the sampled fluid or tissue. By pIC50 is commonly meant the negative decadic logarithm of the IC50, by convention in mol/L. Higher therefore signals a small IC50. Broadly, the T/C is the result in the treated group divided by that in the control group, in per cent. By IC50 is commonly meant the concentration that gives 50% inhibition. Read a low IC50 as higher potency.

As for `CCc1cnc(CSc2cnc(NC(=O)Cc3cccnc3)s2)o1`, the MRT in data set [1] was 48 min. The LCK in the data set on A2780 [2] came to 0.4. This compound also had an AUC in the data set on Mus musculus of 23 µM·h. Also, the Tmax in data set [3] was 30 min. In data set [4], this compound showed a half-life of 66 min. In data set [5], the concentration peaked (Cmax) at 40 µM. Besides, the Cell cycle amounted to 71% in data set [6]; 20% in [7]; 7% in data set [8]; 2% in data set [9]; 50% in [10]; 18% in [11]. The Cell cycle in data set [12] was determined as 7%; in [13], 69%; in [14], 4%; in data set [19], 25%. In addition, the pIC50 in data set [15] was 7.10; in data set [16] it was 8.30; in [17] it was 5.96; in the data set with HS27, 6.07; in the data set with MLF it was 5.73; with M109 it was 5.68. In the data set with A2780 [18], this compound had a pIC50 of 6.62. Also, in the data set listed under Homo sapiens, the Activity is on record as 82%. Further, in the data set on P388, the T/C stood at 115%.
`CCOC(=O)CSc1cnc(NC(C)=O)s1`: the pIC50 is 5.73 in data set [15], 6.77 in data set [16] and 4.64 in data set [17]. Moreover, the IC50 (against Protein kinase C (PKC); in data set [20]) was over 50 µM in each case.
